# Measured values: patent US20260138949A1, “NOVEL COMPOUND AS PHOSPHOLIPASE D INHIBITOR AND USE THEREOF” (UIF (UNIVERSITY INDUSTRY FOUNDATION), YONSEI UNIVERSITY, priority 2022, published 2026)
# Test system: normal colon epithelial cells (FHC)
# Assay: Apoptosis (annexin V-FITC) in normal cells
# Format: cell-based
# Conditions: 5-FU 10 μM, 48 hours
# Method: (§1) To observe changes in apoptosis, normal colon epithelial cells (FHC) and human colon cancer cell line (DLD1) were treated with compound 1-91 at 2 μM and the positive control 5-FU at 10 μM. After 48 hours, the cells were washed with PBS, harvested, and analyzed for apoptosis using an annexin V-FITC apoptosis detection kit.
row,Structure (SMILES),"apoptosis, normal cells"
1,"O=c1[nH]cc(F)c(=O)[nH]1 [Example 5-FU, reference compound]",induced apoptosis in both normal and cancer cells

# Test system: normal colon epithelial cells (FHC)
# Assay: Cell cycle analysis (BrdU/7-AAD flow cytometry) in normal cells
# Format: cell-based
# Conditions: 5-FU 10 μM, 48 hours
# Method: (§2) To observe cell cycle changes, normal colon epithelial cells (FHC) and human colon cancer cell line DLD1 were treated with compound 1-91 at 2 μM and the positive control 5-FU at 10 μM. After 48 hours, the cells were washed with PBS, harvested, and sequentially treated with bromodeoxyuridine (BrdU) and 7-aminoactinomycin D (7-AAD). The cells were then stained with an anti-BrdU antibody conjugated with fluorescein isothiocyanate (FITC) and analyzed using a flow cytometer.
row,Structure (SMILES),"cell cycle arrest, normal cells"
1,"O=c1[nH]cc(F)c(=O)[nH]1 [Example 5-FU, reference compound]",arrested the cell cycle at the G0/G1 phase in normal cells

# Test system: human colon cancer cell line (DLD1)
# Assay: Apoptosis (annexin V-FITC) in cancer cells
# Format: cell-based
# Conditions: DLD1, 5-FU 10 μM, 48 hours
# Method: as §1
row,Structure (SMILES),"apoptosis, cancer cells"
1,"O=c1[nH]cc(F)c(=O)[nH]1 [Example 5-FU, reference compound]",induced apoptosis in both normal and cancer cells

# Test system: human colon cancer cell line DLD1
# Assay: Cell cycle analysis (BrdU/7-AAD flow cytometry) in cancer cells
# Format: cell-based
# Conditions: DLD1, 5-FU 10 μM, 48 hours
# Method: as §2
row,Structure (SMILES),"cell cycle arrest, cancer cells"
1,"O=c1[nH]cc(F)c(=O)[nH]1 [Example 5-FU, reference compound]",at the Sub G1 phase in cancer cells

# Test system: phospholipase D1
# Assay: PLD activity in HCT116 cells ([3H]phosphatidylbutanol, TLC)
# Format: cell-based, human
# Conditions: compound 10 μM, cells without the compound = 100%
# Method: To evaluate the inhibitory effect of the compounds according to the present invention on phospholipase D1 activity, experiments were conducted as follows.
# For the analysis of PLD activity in cells, human colon cancer cell line (HCT116) was cultured in a 6-well plate at 37° C. for 24 hours, washed twice with phosphate-buffered saline (PBS), and then replaced with medium containing [^3H]myristate and cultured for 24 hours. After the culture, the cells were washed three times with PBS, treated with 1-butanol, and the drug was added to a final concentration of 10 μM. The cells were trypsinized and suspended, and the amount of [^3H]phosphatidylbutanol produced in the cell suspension was measured and evaluated for PLD activity using thin layer chromatography (TLC), and the results are shown in Table 1 below.
# The Remaining activity % at 10 μM in Table 1 is calculated by setting the amount of [^3H]phosphatidylbutanol produced in cells without the compound as 100% and calculating the amount of [^3H]phosphatidylbutanol produced in cells treated with the compound as a percentage. Therefore, the lower the value of Remaining activity %, the higher the PLD inhibitory activity.
row,Structure (SMILES),Remaining activity % at 10 μM
1,"O=C(Cc1c[nH]c2ccccc12)NCc1ccc(C(F)(F)F)cc1 [Example 1-43, 2-(1H-indol-3-yl)-N-(4-(trifluoromethyl)benzyl)acetamide]",48.92%
2,"O=C(Cc1c[nH]c2ccccc12)NNc1cccc(Cl)c1 [Example 1-52, N′-(3-chlorophenyl)-2-(1H-indol-3-yl)acetohydrazide]",95.18%
3,"O=C(Cc1c[nH]c2ccccc12)Nc1cccc(Br)c1 [Example 1-16, N-(3-bromophenyl)-2-(1H-indol-3-yl)acetamide]",97.25%
4,"O=C(CCc1c[nH]c2ccccc12)Nc1ccc(O)c(O)c1 [Example 1-108, N-(3,4-dihydroxyphenyl)-3-(1H-indol-3-yl)propanamide]",76.29%
5,"O=C(Cc1c[nH]c2ccccc12)Nc1ccc(O)c(O)c1 [Example 1-106, N-(3,4-dihydroxyphenyl)-2-(1H-indol-3-yl)acetamide]",62.00%
6,"O=C(Cc1c[nH]c2ccccc12)Nc1ccc(Br)cc1 [Example 1-17, N-(4-bromophenyl)-2-(1H-indol-3-yl)acetamide]",not active
7,"O=C(Nc1ccc(F)cc1)c1cc2ccccc2[nH]1 [Example 1-83, N-(4-fluorophenyl)-1H-indole-2-carboxamide]",not active
8,"O=C(Cc1c[nH]c2ccccc12)NCc1cccc(Cl)c1Cl [Example 1-47, N-(2,3-dichlorobenzyl)-2-(1H-indol-3-yl)acetamide]",62.96%
9,"O=C(Cc1c[nH]c2ccccc12)NNc1ccc(Cl)c(Cl)c1 [Example 1-54, N′-(3,4-dichlorophenyl)-2-(1H-indol-3-yl)acetohydrazide]",not active
10,"O=C(Nc1cccc(C(F)(F)F)c1)c1cc2cc(F)ccc2[nH]1 [Example 1-95, 5-fluoro-N-(3-(trifluoromethyl)phenyl)-1H-indole-2-carboxamide]",52.08%
11,"O=C(CCc1c[nH]c2ccccc12)Nc1ccc(F)cc1 [Example 1-63, N-(4-fluorophenyl)-3-(1H-indol-3-yl)propanamide]",not active
12,"O=C(Nc1cc(O)cc(O)c1)c1cc2cc(F)ccc2[nH]1 [Example 1-112, N-(3,5-dihydroxyphenyl)-5-fluoro-1H-indole-2-carboxamide]",not active
13,"COC(=O)c1ccc(CNC(=O)Cc2c[nH]c3ccccc23)cc1 [Example 1-38, methyl 4-((2-(1H-indol-3-yl)acetamido)methyl)benzoate]",99.81%
14,"O=C(CCc1c[nH]c2ccccc12)Nc1ccc(Br)cc1 [Example 1-65, N-(4-bromophenyl)-3-(1H-indol-3-yl)propanamide]",not active
15,"COC(=O)c1ccc(CNC(=O)CCCc2c[nH]c3ccccc23)cc1 [Example 1-80, methyl 4-((4-(1H-indol-3-yl)butanamido)methyl)benzoate]",56.02%
16,"O=C(Cc1c[nH]c2ccccc12)Nc1ccc(Cl)c([N+](=O)[O-])c1 [Example 1-19, N-(4-chloro-3-nitrophenyl)-2-(1H-indol-3-yl)acetamide]",not active
17,"COc1ccc(CNC(=O)CCc2c[nH]c3ccccc23)cc1OC [Example 1-73, N-(3,4-dimethoxybenzyl)-3-(1H-indol-3-yl)propanamide]",95.81%
18,"CCC(C)c1ccc(NC(=O)Cc2c[nH]c3ccccc23)cc1 (centres unmarked) [Example 1-34, N-(4-sec-butylphenyl)-2-(1H-indol-3-yl)acetamide]",66.07%
19,"O=C(Cc1c[nH]c2ccccc12)Nc1ccc(Cl)c(Cl)c1 [Example 1-20, N-(3,4-dichlorophenyl)-2-(1H-indol-3-yl)acetamide]",not active
20,"O=C(Cc1c[nH]c2ccccc12)Nc1cccc(O)c1 [Example 1-8, N-(3-hydroxyphenyl)-2-(1H-indol-3-yl)acetamide]",65.7%
21,"COc1cc(NC(=O)c2cc3cc(F)ccc3[nH]2)cc(OC)c1 [Example 1-96, N-(3,5-dimethoxyphenyl)-5-fluoro-1H-indole-2-carboxamide]",98.38%
22,"O=C(NCc1ccc(Cl)c(Cl)c1)c1c[nH]c2ccccc12 [Example 1-5, N-(3,4-dichlorobenzyl)-1H-indole-3-carboxamide]",89.34%
23,"O=C(Nc1cc(C(F)(F)F)cc(C(F)(F)F)c1)c1cc2cc(F)c(F)cc2[nH]1 [Example 1-113, N-(3,5-bis(trifluoromethyl)phenyl)-5,6-difluoro-1H-indole-2-carboxamide]",42.48%
24,"O=C(CCc1c[nH]c2ccccc12)Nc1cc(C(F)(F)F)cc(C(F)(F)F)c1 [Example 1-67, N-(3,5-bis(trifluoromethyl)phenyl)-3-(1H-indol-3-yl)propanamide]",29.17%
25,"COc1ccccc1CNC(=O)Cc1c[nH]c2ccccc12 [Example 1-50, 2-(1H-indol-3-yl)-N-(2-methoxybenzyl)acetamide]",79.27%
